We go through twelve compounds from PubChem BioAssay (NCI).

Where “and” joins values, the source holds several entries; their conditions need not be identical. Identical values can stand only once.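 In this assay, cells in 96-well plates receive the compound at five concentrations for 48 hours. Endpoints are linearly interpolated between the surrounding concentrations. GI50 marks 50% less growth. At the TGI there is no net growth.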 Where a SMILES comes first, the peptide text is derived from it. [ ]: non-standard residue; d: D form. The star is where a group is joined. ξ: configuration not given here. ξPhe(4-NO2) = NC(Cc1ccc([N+](=O)[O-])cc1)C(=O)O; Boc = CC(C)(C)OC(=O)*; OBn = c1ccc(CO*)cc1

Some test systems named below: CCRF-CEM leukemia; DU-145 prostate; HS 578T breast; LOX IMVI melanoma; M14 melanoma; NCI-H226 lung; NCI/ADR-RES ovarian; OVCAR-5 ovarian; SNB-19 CNS; UO-31 renal; NCI-H460 lung.
Holding throughout (experiment): DTP human tumour cell line panel, 48 h

As a reminder, the TGI is the concentration giving total growth inhibition. A higher TGI goes with lower sensitivity of the cells. In general, GI50 refers to the concentration at which growth is held to half of that of the control.

`CC1=CC2(O)OC3(CC2=C(C)C)C(C)CCC13` (stereo unspecified): the concentration for total growth inhibition (TGI) with CCRF-CEM leukemia, in the test on DU-145 prostate, in the test on HS 578T breast, with LOX IMVI melanoma, in the test on M14 melanoma and in the test on NCI-H226 lung was greater than 100 µM each time. For the same compound, the total growth inhibition concentration (TGI) in the test on NCI/ADR-RES ovarian, with OVCAR-5 ovarian, in the test with SNB-19 CNS and with UO-31 renal was greater than 100 µM throughout.

Consider `CN(C)CCOC1(Cc2ccc(Cl)cc2Cl)CCC(C(C)(C)C)CC1` (stereo unspecified), for which the TGI with CCRF-CEM leukemia is 4.69 µM and 5.32 µM; in the test on DU-145 prostate it was 5.91 µM and 6.45 µM; in the test on HS 578T breast, 5.2 µM and 5.27 µM; in the test with LOX IMVI melanoma, 2.97 µM and 3.06 µM; with M14 melanoma it was 3.25 µM and 3.11 µM; with NCI-H226 lung, 5.13 µM and 10.7 µM. Also, the TGI with NCI-H460 lung is 3.18 µM and 2.66 µM; with NCI/ADR-RES ovarian, 4.52 µM and 3.12 µM; in the test with OVCAR-5 ovarian, 5.54 µM and 3.55 µM; in the test on SNB-19 CNS it was 3.44 µM and 3.74 µM; in the test with UO-31 renal, 6.27 µM and 2.83 µM. For the same compound, the GI50 with DU-145 prostate is 1.89 µM and 2.68 µM; with NCI-H226 lung, 2.19 µM and 4.67 µM; in the test with NCI/ADR-RES ovarian, 1.99 µM; with OVCAR-5 ovarian, 2.09 µM; with UO-31 renal, 2.17 µM and 1.45 µM.

As for `C=C1CC2(OC1=O)c1ccccc1C=Cc1ccccc12`, the concentration for total growth inhibition (TGI) in the test on CCRF-CEM leukemia worked out at 6.58 µM; in the test with DU-145 prostate, 23.6 µM; with HS 578T breast it was 6.29 µM; in the test on LOX IMVI melanoma it was 4.1 µM; with M14 melanoma it was 10 µM; in the test with NCI-H226 lung, 11.2 µM. The TGI with NCI-H460 lung amounted to 25.4 µM; in the test with NCI/ADR-RES ovarian, 3.06 µM; with OVCAR-5 ovarian, 22.5 µM; in the test on SNB-19 CNS it was 29.9 µM; with UO-31 renal, 15.7 µM.

Take `CCOC(=O)c1c2c(c(O)c3ccccc3c(O)n(-c3ccc(C)cc3)c1C)C(=O)C=CC2=O`: the TGI is 78.9 µM with CCRF-CEM leukemia; 91 µM in the test with DU-145 prostate; 66 µM with HS 578T breast; 38.8 µM with LOX IMVI melanoma; 44.8 µM in the test with M14 melanoma; greater than 100 µM in the test with NCI-H226 lung. The TGI is 84.6 µM in the test with NCI-H460 lung; 48.7 µM with NCI/ADR-RES ovarian; greater than 100 µM in the test with OVCAR-5 ovarian; greater than 100 µM in the test with SNB-19 CNS; greater than 100 µM in the test on UO-31 renal.

Regarding `CN(C)c1ncnc2c1ncn2C1C=CC(COS(N)(=O)=O)C1` (stereo unspecified), the TGI in the test on CCRF-CEM leukemia, in the test with DU-145 prostate, with HS 578T breast, in the test on LOX IMVI melanoma, with M14 melanoma and in the test with NCI-H460 lung was greater than 100 µM throughout. The TGI in the test with NCI/ADR-RES ovarian, in the test with SNB-19 CNS and in the test on UO-31 renal was greater than 100 µM in each case.

With `CC(C)(C)OC(=O)NC(Cc1ccc([N+](=O)[O-])cc1)C(=O)NCC(=O)OCc1ccccc1` (stereo unspecified) (Boc-[ξPhe(4-NO2)]-Gly-OBn), the TGI with CCRF-CEM leukemia is 48.8 µM; with DU-145 prostate, 81.8 µM; in the test on HS 578T breast, 54 µM; with LOX IMVI melanoma it was 31.2 µM; in the test with M14 melanoma it was 37.6 µM; in the test with NCI-H226 lung, 67.8 µM. Further, the TGI in the test on NCI-H460 lung is 49.4 µM; in the test on NCI/ADR-RES ovarian it was greater than 100 µM; in the test with OVCAR-5 ovarian, greater than 100 µM; in the test on SNB-19 CNS, greater than 100 µM; in the test with UO-31 renal it was 45.4 µM.

For `C#CCCOC1(OC)N=NC(C)(C)O1` (stereo unspecified), the TGI in the test with CCRF-CEM leukemia, in the test with DU-145 prostate, in the test with HS 578T breast, in the test with LOX IMVI melanoma, in the test on M14 melanoma and with NCI-H226 lung was greater than 100 µM in each case. Also, the TGI with NCI-H460 lung, in the test with NCI/ADR-RES ovarian, with OVCAR-5 ovarian, in the test on SNB-19 CNS and with UO-31 renal was greater than 100 µM in each case.

As for `Cn1cnc2c(OCC3CCCCC3)nc(N)nc21`, the TGI with CCRF-CEM leukemia, with DU-145 prostate, with HS 578T breast, in the test on LOX IMVI melanoma, in the test with M14 melanoma and with NCI-H226 lung was greater than 100 µM throughout. Also, the TGI in the test on NCI-H460 lung, in the test on NCI/ADR-RES ovarian, in the test on OVCAR-5 ovarian, with SNB-19 CNS and with UO-31 renal was greater than 100 µM in each case.

For the compound `CC1(C)OC(=O)C(C)(C)OC1=O`, the TGI in the test with CCRF-CEM leukemia, in the test with DU-145 prostate, in the test on HS 578T breast, with LOX IMVI melanoma, in the test with M14 melanoma and with NCI-H226 lung was greater than 100 µM each time. In addition, the TGI with NCI-H460 lung, in the test on NCI/ADR-RES ovarian, with OVCAR-5 ovarian, in the test with SNB-19 CNS and in the test on UO-31 renal was greater than 100 µM in each case.

As to `O=C1/C(=C/c2ccc(Cl)cc2)NC(=S)N1CN1CCOCC1`, the TGI in the test on CCRF-CEM leukemia, with DU-145 prostate, in the test on HS 578T breast, in the test on LOX IMVI melanoma, with M14 melanoma and with NCI-H226 lung was greater than 100 µM throughout. In addition, the total growth inhibition concentration (TGI) in the test with NCI/ADR-RES ovarian, in the test on OVCAR-5 ovarian, with SNB-19 CNS and in the test on UO-31 renal was greater than 100 µM in each case.

`C[C@]12CC(c3ccccc3O1)C(C#N)C(=O)N2` (stereo partly specified): the TGI with CCRF-CEM leukemia, with DU-145 prostate, with HS 578T breast, with LOX IMVI melanoma, with M14 melanoma and in the test with NCI-H226 lung was greater than 100 µM each time. Also, the TGI in the test with NCI-H460 lung, in the test on NCI/ADR-RES ovarian, in the test with OVCAR-5 ovarian and in the test with SNB-19 CNS was greater than 100 µM throughout.

`COc1ccc(C2SC(N)=Nc3c2c(C)nn3C(=O)c2ccc(Cl)cc2)cc1` (stereo unspecified): the TGI in the test on CCRF-CEM leukemia, in the test with DU-145 prostate, in the test on HS 578T breast, with LOX IMVI melanoma, with M14 melanoma and with NCI-H226 lung was greater than 10 µM each time. Also, the TGI with NCI-H460 lung, with NCI/ADR-RES ovarian, in the test on OVCAR-5 ovarian and with SNB-19 CNS was greater than 10 µM in each case.
